{"source": "patent US12643926B2", "about": "“LysM receptor motifs” (Aarhus Universitet, priority 2020, dated 2026)", "molecules": {"B1": {"name": "A. thaliana CERK1: A. thaliana LysM chitin receptor CERK1 (protein, UniProt A8R7E6 24-617, looked up)", "Chitin elicitor receptor …": "KCRTSCPLALASYYLENGTTLSVINQNLNSSIAPYDQINFDPILRYNSNIKDKDRIQMGSRVLVPFPCECQPGDFLGHNFSYSVRQEDTYERVAISNYANLTTMESLQARNPFPATNIPLSATLNVLVNCSCGDESVSKDFGLFVTYPLRPEDSLSSIARSSGVSADILQRYNPGVNFNSGNGIVYVPGRDPNGAFPPFKSSKQDGVGAGVIAGIVIGVIVALLLILFIVYYAYRKNKSKGDSFSSSIPLSTKADHASSTSLQSGGLGGAGVSPGIAAISVDKSVEFSLEELAKATDNFNLSFKIGQGGFGAVYYAELRGEKAAIKKMDMEASKQFLAELKVLTRVHHVNLVRLIGYCVEGSLFLVYEYVENGNLGQHLHGSGREPLPWTKRVQIALDSARGLEYIHEHTVPVYVHRDIKSANILIDQKFRAKVADFGLTKLTEVGGSATRGAMGTFGYMAPETVYGEVSAKVDVYAFGVVLYELISAKGAVVKMTEAVGEFRGLVGVFEESFKETDKEEALRKIIDPRLGDSYPFDSVYKMAELGKACTQENAQLRPSMRYIVVALSTLFSSTGNWDVGNFQNEDLVSLMSGR"}, "B2": {"name": "construct 41: Nfr1 promoter; LYK3 (protein, UniProt Q6UD73 1-620, looked up)", "chain": "MNLKNGLLLFILFLDCVFFKVESKCVKGCDVALASYYIIPSIQLRNISNFMQSKIVLTNSFDVIMSYNRDVVFDKSGLISYTRINVPFPCECIGGEFLGHVFEYTTKEGDDYDLIANTYYASLTTVELLKKFNSYDPNHIPVKAKINVTVICSCGNSQISKDYGLFVTYPLRSDDTLAKIATKAGLDEGLIQNFNQDANFSIGSGIVFIPGRDQNGHFFPLYSRTGIAKGSAVGIAMAGIFGLLLFVIYIYAKYFQKKEEEKTKLPQTSRAFSTQDASGSAEYETSGSSGHATGSAAGLTGIMVAKSTEFTYQELAKATNNFSLDNKIGQGGFGAVYYAELRGEKTAIKKMDVQASSEFLCELKVLTHVHHLNLVRLIGYCVEGSLFLVYEHIDNGNLGQYLHGIGTEPLPWSSRVQIALDSARGLEYIHEHTVPVYIHRDVKSANILIDKNLRGKVADFGLTKLIEVGNSTLHTRLVGTFGYMPPEYAQYGDVSPKIDVYAFGVVLYELITAKNAVLKTGESVAESKGLVQLFEEALHRMDPLEGLRKLVDPRLKENYPIDSVLKMAQLGRACTRDNPLLRPSMRSIVVALMTLSSPTEDCDDDSSYENQSLINLLSTR", "modifications": "full-length expressed from Nfr1 promoter", "notes": "Nfr1 promoter; LYK3"}}, "key": {"[1]": {"target": "T1, Medicago truncatula NFP ectodomain (residues 28-246) double mutant L147D L154D (Medicago truncatula, UniProt Q0GXS4, L147D/L154D)", "T1 construct": "The M. truncatula NFP ectodomain (residues 28-246); AcMNPV gp67 signal peptide, replaces the native signal peptide (N); hexa-histidine (C); made in house; host or cells: Sf9 insect cells (Spodoptera frugiperda), baculovirus", "T1 sequence (Q0GXS4 28-246 L147D/L154D)": "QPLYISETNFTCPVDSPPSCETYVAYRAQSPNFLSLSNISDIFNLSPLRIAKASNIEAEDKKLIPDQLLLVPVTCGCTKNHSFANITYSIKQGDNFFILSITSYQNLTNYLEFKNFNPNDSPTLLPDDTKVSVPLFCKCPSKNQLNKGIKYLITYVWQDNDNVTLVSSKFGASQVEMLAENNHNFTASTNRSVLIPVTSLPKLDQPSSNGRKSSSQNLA", "assay": "biolayer interferometry (BLI) binding of S. meliloti Nod factor LCO-IV to NFP L147D L154D ectodomain", "conditions": "double mutant vs WT", "procedure": "(§1) The M. truncatula NFP ectodomain (residues 28-246) was codon-optimized for insect cell expression (Genscript, Piscataway, USA) and cloned into the pOET4 baculovirus transfer vector (Oxford Expression Technologies). The native NFP signal peptide (residues 1-27, predicted by SignalP 4.1) was replaced with the AcMNPV gp67 signal peptide to facilitate secretion and a hexa-histidine tag was added to the C-terminus. Recombinant baculoviruses were produced in […] (Spodoptera frugiperda) using the FlashBac Gold kit (Oxford Expression technologies) according to the manufacturer's instructions with Lipofectin (ThermoFisher Scientific) as a transfection reagent. Protein expression was performed as follows. Suspension-cultured Sf9 cells were maintained with shaking at 299 K in serum-free MAX-XP (BD-Biosciences, discontinued) or HyClone SFX (GE Healthcare) medium supplemented with 1% Pen-Strep (10000 U/ml, Life technologies) and 1% CD lipid concentrate (Gibco). Protein expression was induced by adding recombinant passage 3 virus once the Sf9 cells reached a cell density of 1.0*10^6 cells/ml. After 5-7 days of expression, medium supernatant containing NFP ectodomains was harvested by centrifugation. This was followed by an overnight dialysis step against 50 mM Tris-HCl pH 8, 200 mM NaCl at 277 K. The NFP ectodomain was enriched by two subsequent steps of Ni-IMAC purification (HisTrap excel/HisTrap HP, both GE Healthcare). For crystallography, N-glycans were removed using the endoglycosidase PNGase F (1:15 (w/w), room temperature, overnight). As a final purification step, NFP ectodomains was purified by SEC on a Superdex 200 10/300 or HiLoad Superdex 200 16/600 (both GE Healthcare) in phosphate buffered saline at pH 7.2 supplemented to a total of 500 mM NaCl (for binding assays) or 50 mM Tris-HCl, 200 mM NaCl (for crystallography). NFP ectodomain eluted as a single, homogeneous peak corresponding to a monomer.\nThe M. truncatula NFP leucine residues L147 and L154 were replaced with aspartate residues. Aspartate is similar in size to leucine, but negatively charged where leucine is hydrophobic. Point mutants of NFP were engineered using site-directed mutagenesis. In particular, a double-mutated NFP was engineered where the leucine residues L147 and L154 were replaced with aspartate residues to create the mutant NFP L147D L154D. Point mutated versions of the NFP ectodomain were expressed and purified as described above.\n(§2) The binding assay using NFP wild type (WT) was replicated seven times, while the binding assay using the NFP mutant NFP L147D L154D was replicated four times.\n(§3) Binding of NFP WT and NFP L147D/L154D mutant to S. meliloti Nod factor LCO-IV was measured on an Octet RED 96 system (Pall ForteBio). S. meliloti Nod factor LCO-IV consists of a tetrameric/pentameric N-acetylglucosamine backbone that is O-sulfated on the reducing terminal residue, O-acetylated on the non-reducing terminal residue, and mono-N-acylated by unsaturated C16 acyl groups. Biotinylated ligand conjugates were immobilized on streptavidin biosensors (kinetic quality, Pall ForteBio) at a concentration of 125-250 nM for 5 minutes. The binding assays were replicated 7 times for the NFP WT, and 4 times for the NFP L147D/L154D mutant. Data analysis was performed in GraphPad Prism 6 software (GraphPad Software, Inc.). Equilibrium dissociation constants derived from the steady-state were determined by applying a non-linear regression (one site, specific binding) to the response at equilibrium plotted against the protein concentration. Kinetic parameters were determined by non-linear regression (association followed by dissociation) on the subtracted data. Table 9 summarizes the kinetic parameters of FIGS. 18C-18D, with goodness of fit described by the global fit R^2 on the mean value of each point, and number of replicates performed using independent protein preparations (n) indicated."}, "[2]": {"target": "T2, Medicago truncatula NFP ectodomain, wild type (residues 28-246) (Medicago truncatula, UniProt Q0GXS4)", "T2 construct": "The M. truncatula NFP ectodomain (residues 28-246); AcMNPV gp67 signal peptide, replaces the native signal peptide (N); hexa-histidine (C); made in house; host or cells: Sf9 insect cells (Spodoptera frugiperda), baculovirus", "T2 sequence (Q0GXS4 28-246)": "as the sequence (Q0GXS4 28-246 L147D/L154D) above, with D120L, D127L counted along it", "assay": "biolayer interferometry (BLI) binding of S. meliloti Nod factor LCO-IV to NFP WT ectodomain", "conditions": "n = 7", "procedure": "as §1, §2\nBinding of NFP WT and NFP L147D/L154D mutant to S. meliloti Nod factor LCO-IV was measured on an Octet RED 96 system (Pall ForteBio). […] Equilibrium dissociation constants derived from the steady-state were determined by applying a non-linear regression (one site, specific binding) to the response at equilibrium plotted against the protein concentration. Kinetic parameters were determined by non-linear regression (association followed by dissociation) on the subtracted data. […]"}, "[3]": {"assay": "Biolayer interferometry of A. thaliana CERK1 binding to chitin fragments", "conditions": "BLI; CO5 and CO8; result in words", "procedure": "as §3, with “Table 9 summarizes the kinetic parameters of FIGS. 18C-18D, with goodness of fit described by the global fit R^2 on the mean value of each point, and number of replicates performed using independent protein preparations (n) indicated.” left out\nBinding of A. thaliana CERK1 (AtCERK1) to chitopentaose (CO5) and chitooctaose (CO8) was measured in the same way."}, "[4]": {"test_system": "L. japonicus nfr1-1 loss-of-function mutant", "assay": "Nodulation assay: complementation of L. japonicus nfr1-1 hairy roots after M. loti R7A DsRed inoculation", "type": "in vivo, Lotus japonicus", "conditions": "Nfr1 promoter, five weeks post inoculation", "procedure": "A. rhizogenes carrying the expression constructs of interest were grown for two days on solid medium. The cells of one plate were resuspended in 2 ml YMB media, and this process was repeated for each construct. A 1 ml syringe with a needle (Sterican Ø0.40×20 mm) was then used to transform the plants, whereby the needle was used to puncture the hypocotyl and a droplet with the bacterial suspension was placed on the wound. Petri dishes containing the transformed roots were sealed and left in the dark for two days and then moved to 21° C. under 16 hour light/8 hour dark conditions. After three weeks, plants with transformed roots were moved to Magenta boxes (Sigma-Aldrich) filled with a 4:1 mixture of lightweight expanded clay aggregate (LECA, 2-4 mm; Saint-Gobain Weber A/S) and vermiculite (size M; Damolin A/S) supplemented with 80 ml nitrogen-free ¼× B&D nutrient solution. All plants were grown at 21° C. under 16 hour light/8 hour dark conditions.\nChimeric receptors under the control of the Nfr1 promoter were tested for their ability to complement a L. japonicus nfr1-1 loss-of-function mutant that is unable to develop root nodules (Radutoiu, S. et al. Nature 2003 425). […] At five weeks post inoculation, nodules were counted and images were acquired with a Leica FluoStereo M165FC microscope equipped with the Leica DFC310 FX camera. […]"}}, "note": "Entries after “also recorded” stand apart in the source; their conditions may differ. Read-outs that look alike come from different tables or passages of the source.", "data": [{"molecule": "CCCCCC/C=C\\CCCCC/C=C/C(=O)N[C@H]1[C@H](O[C@H]2[C@H](O)[C@@H](NC(C)=O)[C@H](O[C@H]3[C@H](O)[C@@H](NC(C)=O)[C@H](O[C@H]4[C@H](O)[C@@H](NC(C)=O)C(O)O[C@@H]4COS(=O)(=O)O)O[C@@H]3CO)O[C@@H]2CO)O[C@H](COC(C)=O)[C@@H](O)[C@@H]1O", "note": "(stereo partly drawn) [S. meliloti Nod factor LCO-IV]", "values": [{"measurement": "affinity versus NFP WT (Table 8 data)", "setting": "[1]", "result": "approximately two times lower affinity"}, {"measurement": "association (Kon) versus NFP WT (Table 8 data)", "setting": "[1]", "result": "almost unaffected"}, {"measurement": "association rate (kon), fold faster than WT (Table 9 data)", "setting": "[1]", "result": 4.5, "unit": "fold"}, {"measurement": "dissociation (Koff), times faster than NFP WT (Table 8 data)", "setting": "[1]", "result": "approximately 15 times"}, {"measurement": "dissociation rate (koff), fold increase over WT (Table 9 data)", "setting": "[1]", "result": 59, "unit": "fold"}, {"measurement": "lower affinity compared to WT NFP ectodomain (Table 9 data)", "setting": "[1]", "result": 13, "unit": "fold"}, {"measurement": "kon", "setting": "[2]; Table 8, read-out: A (converted)", "result": 0.958, "unit": "M⁻¹ s⁻¹"}, {"measurement": "koff", "setting": "[2]; Table 8, read-out: D (converted)", "result": "2.48e-05", "unit": "s⁻¹"}, {"measurement": "koff", "setting": "[2]; Table 9, BLI, read-out: koff", "result": 0.00064, "unit": "s⁻¹"}, {"measurement": "kon", "setting": "[2]; Table 9, BLI, read-out: kon", "result": 50.3, "unit": "M⁻¹ s⁻¹"}]}, {"molecule": "B1", "values": [{"measurement": "binding kinetics to chitin fragments", "setting": "[3]", "result": "fast association and dissociation rates"}]}, {"molecule": "B2", "values": [{"measurement": "nodule formation (complementation of nfr1)", "setting": "[4]", "result": "absence of nodulation; also recorded: signaling incompetent"}]}]}
